Reference: publication PMC11477482 (Molecules, 2024)
“Also recorded” adds a separate entry of the source.

Columns and labels:
HaCaT cells = assay: Cellular metabolic activity, resazurin reduction assay, HaCaT; type: cell-based, human; details: HaCaT keratinocytes, concentrations examined (abstract: up to 500 µM)
Protocol: (§1) The human keratinocytes (HaCaT, CLS 300493, Eppelheim, Germany) cell line was cultured with Dulbecco’s Modified Eagle’s Medium (DMEM) (Sigma-Aldrich, St. Louis, MO, USA), supplemented with 10% (v/v) of heat-inactivated fetal bovine serum (FBS), 1% (v/v) antibiotic solution (from a 10,000 U/mL penicillin and 10,000 μg/mL streptomycin stock) (Gibco, Carlsbad, CA, USA), 3.7 g/L sodium bicarbonate, and 1 mM sodium pyruvate (Sigma-Aldrich, St. Louis, MO, USA). The cell culture of keratinocytes was detached with EDTA solution 1X (Sigma-Aldrich, St. Louis, MO, USA) when the cells reached 70–80% confluence in cell culture flasks. The mouse macrophage cell line (RAW 264.7, ATCC TIB-71, Manassas, VA, USA) was cultured in DMEM supplemented with 10% (v/v) non-inactivated FBS, 1% (v/v) antibiotic solution, 1.5 g/L sodium bicarbonate, and 1 mM sodium pyruvate. Macrophages were mechanically detached with a cell scraper and subcultured in (1:10) proportion of cellular suspension to a final volume of DMEM. […] The metabolic activity of human epidermal keratinocytes (HaCaT), murine macrophages (RAW264.7), and human monocytes (THP-1) was assessed using a resazurin reduction assay. […] The absorbance was read at 570 and 620 nm using a SpectraMax Plus 384 absorbance microplate spectrophotometer (Molecular Devices, San Jose, CA, USA). […]

RAW264.7 cells = assay: Cellular metabolic activity, resazurin reduction assay, RAW264.7; type: cell-based, mouse; details: RAW264.7 macrophages, concentrations examined (abstract: up to 500 µM)
Protocol: as §1

THP-1 cells = assay: Cellular metabolic activity, resazurin reduction assay, THP-1; type: cell-based, human; details: THP-1 monocytes, concentrations examined (abstract: up to 500 µM)
Protocol: as §1

[1] = system: THP-1 cells (CD54 and CD86 expression); assay: Skin sensitization potential, h-CLAT (CD54 and CD86 expression); type: cell-based, human; details: THP-1, h-CLAT
Description: The cell culture of keratinocytes was detached with EDTA solution 1X (Sigma-Aldrich, St. Louis, MO, USA) when the cells reached 70–80% confluence in cell culture flasks. […] Macrophages were mechanically detached with a cell scraper and subcultured in (1:10) proportion of cellular suspension to a final volume of DMEM. […] Cells were subcultured every 2 or 3 days and maintained in culture for 2–3 months, according to ATCC® instructions.
Following OECD guidelines, researchers utilized the THP-1 human monocyte cell line as a substitute for dendritic cells (DCs) to assess skin sensitization potential. […] The cell pellet was further resuspended in 100 µL of PBS and analyzed by flow cytometry using a BD Accuri™ C6 cytometer (San Jose, CA, USA).
CD86 and CD54 levels were analyzed by flow cytometry using the acquisition channels FL1 and FL4. Mitochondrial O2^− production was measured by flow cytometry using the acquisition channel FL2. The relative fluorescence intensity (RFI) of CD86 and CD54 (THP-1 maturation assay) and MitoSOX (mitochondrial antioxidant activity) in the control and chemical-treated cells, based on the geometric mean fluorescence intensity (MFI), was calculated according to the following equation: RFI=MFI of chemical treated cells−MFI of chemical treated unstained cells/MFI of control treated cells−MFI of control unstained cells ×100

[2] = Stability at different pH values (UV-vis absorbance); type: physicochemical; details: for pH stability: 100 µM buffered solutions, pH 2 to 8
Protocol: Buffer solutions with pH values between 2 and 8 were prepared and their pH was measured. The buffer solutions were prepared according to Portuguese Pharmacopeia 11.0 specifications. Each compound solution (100 µM) buffered at a specific pH was prepared in triplicate. The solutions were stored at room temperature and protected from light. Aliquots of 3.00 mL were transferred to quartz cuvettes at specific time points, and their absorbance was measured by ultraviolet/visible (UV–vis) spectrophotometry. The blank for each pH corresponded to 3.00 mL of the respective buffer.

[3] = Stability at different temperatures, pH 5 (UV-vis absorbance); type: physicochemical; details: for thermostability: pH 5, 4, 25, 40 and 60 °C
Protocol: Each compound solution (100 µM) buffered at pH 5 was prepared in triplicate. The other three samples were stored at 4 °C, 25 °C, 40 °C, and 60 °C, protected from light. Aliquots of 3.00 mL were transferred to quartz cuvettes at specific time points, and their absorbance was measured by UV–vis spectrophotometry. The blank of each pH corresponded to 3.00 mL of respective buffer. Stability was determined in terms of the change in the maximum peak absorbance.

[4] = design: method as in earlier work; details: ref (2) of the supplement; read-out: DPPH scavenging EC50 (literature value); cited from earlier work
[5] = Cellular metabolic activity, resazurin reduction assay, HaCaT; type: cell-based, human; details: human, HaCaT keratinocytes; HaCaT, resazurin, 24 h, concentrations greater than or equal to 500 µM; read-out: cell viability
Protocol: as §1

human fibroblasts = details: ref [15],[16],[17]; cited from earlier work
B16 cells = details: 4 mM, compared to 3-O-ethyl ascorbic acid, ref [15],[16],[17]; cited from earlier work

| SMILES | effect on cell viability / metabolic activity (HaCaT cells) | effect on cell viability / metabolic activity (RAW264.7 cells) | effect on cell viability / metabolic activity (THP-1 cells) | skin sensitization potential [1] | pH stability [2] | thermostability [3] | variations in absorbance ([2]; acidic and neutral pH, 100 µM aqueous buffer) [%] | absorbance normalized to t = 0 ([3]; pH 5, 60 °C, in 2 h) [%] | absorbance normalized to t = 0 ([3]; pH 5, storage at 25 °C) [%] | EC50 [4] [µM] | viability at 24 h [5] [%] | collagen production (human fibroblasts) [µg/well] | lightening effect (B16 cells) |
| --- | --- | --- | --- | --- | --- | --- | --- | --- | --- | --- | --- | --- | --- |
| O=C1OC(C(COS(=O)(=O)O)OS(=O)(=O)O)C(OS(=O)(=O)O)=C1OC1OC(COS(=O)(=O)O)C(OS(=O)(=O)O)C(OS(=O)(=O)O)C1OS(=O)(=O)O [AAGS, 2-O-α-D-glucopyranosyl-L-ascorbic acid persulfate] | did not adversely impact cell viability; also recorded: did not affect the metabolic activity | did not adversely impact cell viability; also recorded: did not affect the metabolic activity | did not adversely impact cell viability; also recorded: did not affect the metabolic activity | non-sensitizing profile; also recorded: AA, AAG, and AAGS with non-sensitizer profile | improved stability covering a larger range of pH values (pH = 2–6) | highest level of stability among the compounds | – | – | – | – | – | – | – |
| O=C1O[C@H]([C@@H](O)CO)C(O)=C1O [AA, Ascorbic acid] | – | – | – | – | unstable at acidic and neutral pH | decomposed with time at all the temperatures tested | > 90 | < 30 | < 50 | 16.3 ± 0.569 | – | – | – |
| O=C1O[C@H]([C@@H](O)CO)C(O)=C1O[C@H]1O[C@H](CO)[C@@H](O)[C@H](O)[C@H]1O [AAG, 2-O-α-D-glucopyranosyl-L-ascorbic acid] | – | – | – | AA, AAG, and AAGS with non-sensitizer profile | – | – | – | – | – | – | > 70 | > 12 | better lightening effect |
